# Laboratory results reported in US10517889B2, “Modulators of SMAD7 expression” (Ionis Pharmaceuticals, Inc., priority 2017, dated 2019).
# Key:
# [1] = Oligonucleotide concentrations in tissues by LC-MS/MS after oral gavage in CD-1 mice (Example 7); assay type: in vivo; conditions: 500 mg/kg oral gavage once daily for 4 weeks, 48 hours after last dose
# Method: (§1) Groups of 7-8 week old male CD-1 mice were given an oral gavage dose once daily for 4 weeks of 500 mg/kg of Ionis SMAD7 oligonucleotides. Each group contained 8 mice. One group of male CD-1 mice was administered saline by oral gavage daily.
# Oligonucleotide concentrations were detected in various tissues by LC-MS/MS analysis. The greatest concentration was found in the kidney, followed by the colon.
# [2] = Hematology assays after subcutaneous administration in CD-1 mice (Example 6); assay type: in vivo; parameters: RBC / Eosinophils / Monocytes: unit not given here; conditions: 50 mg/kg subcutaneous twice weekly for 7 weeks; for Basophils: n.d. = below detection levels
# Method: (§2) Groups of 8-9 week old male CD-1 mice were injected subcutaneously twice a week for 7 weeks with 50 mg/kg of Ionis oligonucleotides (100 mg/kg/week dose). Each group contained 4 mice. One group of male CD-1 mice was injected subcutaneously twice a week for 7 weeks with PBS. Plasma was collected for analysis on day 28.
# Blood obtained from all mouse groups was measured by an ADVIA2120i hematology analyzer (Siemens, USA) for measurements of the various blood cells, as well as other hematology markers.
# [3] = Oligonucleotide concentration in liver and colon by LC-MS/MS after subcutaneous administration in CD-1 mice (Example 6); assay type: in vivo; conditions: 50 mg/kg subcutaneously twice a week for 7 weeks, 48 hours after the last dose
# Method: as §2
# Oligonucleotide concentrations in the liver and colon were analyzed using LC-MS/MS method.
# [4] = system: mouse Smad7 mRNA; assay: Pharmacology: mouse Smad7 mRNA expression in liver, kidney, duodenum, ileum and colon after subcutaneous administration in CD-1 mice (Example 6); assay type: in vivo; conditions: 50 mg/kg subcutaneous twice weekly for 7 weeks, normalized to GAPDH
# Outline: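 Male CD-1 mice, 8-9 weeks old, got 50 mg/kg oligonucleotide subcutaneously twice weekly (100 mg/kg/week) for 7 weeks, with PBS controls; n=4 per group. At necropsy, Smad7 mRNA in liver, kidney, duodenum, ileum and colon was measured by RT-PCR (probe set HTS7555), normalized to GAPDH; one-way ANOVA with Dunnett's test.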
# [5] = Blood chemistry markers after oral gavage in CD-1 mice (Example 7); assay type: in vivo; conditions: 500 mg/kg oral gavage once daily for 4 weeks, day 30
# Method: The objective of this study was to evaluate the tolerability and pharmacodynamics of select Ionis human SMAD7 antisense oligonucleotides in CD-1 mice following 4 weeks of treatment. The mice were administered oligonucleotides by oral gavage.
# as §1
# Levels of transaminases, albumin, and BUN were measured using a Toshiba 200FR NEO chemistry analyzer (Toshiba Co., Japan).
# [6] = Oligonucleotide concentration in tissues by LC-MS/MS after subcutaneous administration in beagle dogs (Example 8); assay type: in vivo; conditions: 30 mg/kg subcutaneous, 48 hours after the last dose
# Method: There were 4 animals per group.
# Oligonucleotide concentrations of both ION 830025 and ION 798781 were detected in various tissues by LC-MS/MS analysis. The results are presented below, expressed as μg/g tissue. The data was collected 48 hours after the last dose.
# [7] = system: human SMAD7 mRNA; assay: Antisense inhibition of human SMAD7 mRNA expression in Hep3B cells by 3-10-3 cEt gapmers, 10,000 nM, electroporation (Example 2); assay type: cell-based; conditions: approximately 24 hours
# Outline: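 Percent inhibition of SMAD7 mRNA, relative to untreated cells, after ~24 h exposure of electroporated Hep3B cells to 10,000 nM cEt gapmer; levels by qRT-PCR, corrected for total RNA.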
Substance,"Oligonucleotide concentration, Colon [1] [µg/g]","Oligonucleotide concentration, Duodenum [1] [µg/g]","Oligonucleotide concentration, Ileum [1] [µg/g]","Oligonucleotide concentration, Kidney [1] [µg/g]","Oligonucleotide concentration, Liver [1] [µg/g]",Eosinophils [2],Hematocrit [2] [%],Hemoglobin [2] [g/dL],Lymphocytes [2] [%],MCH [2] [pg],MCHC [2] [g/dL],MCV [2] [fL],Monocytes [2],Neutrophils [2] [%],RBC [2],Reticulocytes [2] [%],WBC [2],platelets [2],"Oligonucleotide concentration, Colon [3] [μg/g tissue]","Oligonucleotide concentration, Liver [3] [μg/g tissue]",further results
"829994 (GGAGGCAGGGCCGCGA; 3-10-3 cEt gapmer, further chemistry not given here) [compound 829994]",5.7,0.8,4.0,9.8,1.3,1.3,36.6,12.0,79.4,15.5,32.7,47.3,3.0,16.4,7.7,3.7,5.0 10^3/μL,841.3 10^3/μL,11,45,"% inhibition of Smad7 mRNA expression (compared to control), Kidney [4]: 73%; % inhibition of Smad7 mRNA expression (compared to control), Liver [4]: 58%; ALT [5]: 38 IU/L; AST [5]: 71 IU/L; Albumin [5]: 3.2 g/dL; BUN [5]: 25 mg/dL; Bilirubin [5]: 0.3 mg/dL; Full length oligonucleotide, Distal colon [6]: 7 µg/g; Full length oligonucleotide, Duodenum [6]: 23 µg/g; Full length oligonucleotide, Ileum [6]: 12 µg/g; Full length oligonucleotide, Kidney [6]: 894 µg/g; Full length oligonucleotide, Liver [6]: 335 µg/g; Full length oligonucleotide, Proximal colon [6]: 11 µg/g; % Inhibition ([7]; SMAD7 mRNA, Hep3B cells, electroporation with 10,000 nM antisense oligonucleotide, primer probe set RTS5062, relative to untreated control cells): 68%"
"830121 (AGAATCAAGCCCTGGC; 3-10-3 cEt gapmer, further chemistry not given here) [compound 830121]",2.7,0.4,1.1,13.2,0.9,3.5,40.4,13.6,75.3,15.3,33.6,45.5,5.1,15.8,8.9,4.5,10.1 10^3/μL,765.0 10^3/μL,14,50,"Basophils [2]: 0.3 10^3/μL; % inhibition of Smad7 mRNA expression (compared to control), Kidney [4]: 0%; % inhibition of Smad7 mRNA expression (compared to control), Liver [4]: 24%; ALT [5]: 45 IU/L; AST [5]: 75 IU/L; Albumin [5]: 3.3 g/dL; BUN [5]: 24 mg/dL; Bilirubin [5]: 0.2 mg/dL; Full length oligonucleotide, Distal colon [6]: 20 µg/g; Full length oligonucleotide, Duodenum [6]: 26 µg/g; Full length oligonucleotide, Ileum [6]: 26 µg/g; Full length oligonucleotide, Kidney [6]: 1468 µg/g; Full length oligonucleotide, Liver [6]: 443 µg/g; Full length oligonucleotide, Proximal colon [6]: 19 µg/g; % Inhibition ([7]; Hep3B cells, electroporation with 10,000 nM antisense oligonucleotide, SMAD7 mRNA by RT-PCR (RTS5062), relative to untreated control cells): 69%"
"790615 (CCAATGAGAATGCTTC; 3-10-3 cEt gapmer, further chemistry not given here) [compound 790615]",2.9,0.9,1.6,23.6,2.8,2.5,46.2,15.2,82.8,14.7,32.8,44.8,5.0,9.7,10.3,3.5,10.5 10^3/μL,1055.8 10^3/μL,13,75,"Basophils [2]: 0.1 10^3/μL; % inhibition of Smad7 mRNA expression (compared to control), Kidney [4]: 23%; % inhibition of Smad7 mRNA expression (compared to control), Liver [4]: 18%; ALT [5]: 41 IU/L; AST [5]: 77 IU/L; Albumin [5]: 3.3 g/dL; BUN [5]: 22 mg/dL; Bilirubin [5]: 0.3 mg/dL; Full length oligonucleotide, Distal colon [6]: 17 µg/g; Full length oligonucleotide, Duodenum [6]: 17 µg/g; Full length oligonucleotide, Ileum [6]: 18 µg/g; Full length oligonucleotide, Kidney [6]: 1156 µg/g; Full length oligonucleotide, Liver [6]: 220 µg/g; Full length oligonucleotide, Proximal colon [6]: 17 µg/g; % Inhibition ([7]; Hep3B cells, electroporation with 10,000 nM antisense oligonucleotide, primer probe set RTS5062, relative to untreated control cells): 38%; % Inhibition ([7]; SMAD7 mRNA, Hep3B cells, 10,000 nM antisense oligonucleotide, electroporation, primer probe set RTS5062, relative to untreated control cells): 40%"
